The values that follow come from PubChem BioAssay AID1259342 (Broad Institute, 2017).

SMILES strings stand for the structures. The source made the active and inactive calls.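 The calls were made as follows: active = fitted half-maximal inhibitory concentration AC50 at most ten times the top concentration tested; inconclusive = flat fit with 30 to 70% inhibition, or unusable fit; inactive = AC50 above ten times the top concentration.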 A value given as a limit tells only on which side of the number the result lay.

Sequence of E3 ubiquitin-protein ligase TRIM62 (Homo sapiens) (Q9BVG3 whole entry, looked up): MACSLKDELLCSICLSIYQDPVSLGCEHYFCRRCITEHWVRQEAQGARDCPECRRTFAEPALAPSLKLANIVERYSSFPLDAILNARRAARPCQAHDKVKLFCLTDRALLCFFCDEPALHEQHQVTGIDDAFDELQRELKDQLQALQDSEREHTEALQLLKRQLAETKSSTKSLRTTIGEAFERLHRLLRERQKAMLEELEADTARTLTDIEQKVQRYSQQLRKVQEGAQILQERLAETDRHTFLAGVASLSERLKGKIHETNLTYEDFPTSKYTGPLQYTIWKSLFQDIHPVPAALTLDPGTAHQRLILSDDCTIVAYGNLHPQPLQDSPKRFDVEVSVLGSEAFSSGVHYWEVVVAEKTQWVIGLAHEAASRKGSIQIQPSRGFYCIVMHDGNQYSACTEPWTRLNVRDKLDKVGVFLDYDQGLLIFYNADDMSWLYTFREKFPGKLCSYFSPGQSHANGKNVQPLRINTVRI

The first test has as its target E3 ubiquitin-protein ligase TRIM62 (Homo sapiens) (UniProt Q9BVG3). The test can be described thus: inhibitors of TRIM62-driven CARD9 ubiquitylation, dose response, CARD9-TRIM62 disruptor project, biochemical, ubiquitin ELISA, AlphaLISA TUBE (AID 1259342).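 As to AC50: potency is for inhibitors that reduce CARD9 ubiquitylation signal.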 To be noted: TRIM62-mediated CARD9 ubiquitylation, AlphaLISA TUBE detection. A general note: ELISA stands for enzyme-linked immunosorbent assay.
In general, AC50 refers to the concentration giving half of the maximal activity seen. For `Cc1noc(CN(C)C(=O)c2cc(-c3ccco3)nc3c(C)c(Cl)ccc23)n1`, the AC50 was 49.2 µM. Regarding `O=C(Cc1ccc(S(=O)(=O)N2CCOCC2)s1)Nc1nc2c(s1)CCCC2`, the half-maximal activity concentration (AC50) was 26 µM. As for `CCc1nc(OCc2ccco2)c2sc3nc4c(cc3c2n1)COC(C)(C)C4`, the AC50 is > 160 µM (inactive). Consider `CC1(C)Cc2ccccc2-c2nc(-c3ccccc3)oc(=O)c21`, for which the concentration at half-maximal activity (AC50) was 6.32 µM. Same read-out and setting: as for `COc1cc(N)c(Cc2nccc3cc(OC)c(OC)cc23)cc1OC`, the figure is 79.5 µM; as for `O=C(O)C1Oc2cc3ccccc3cc2O1`, 3.02 µM.

Consider `NC(=O)C1(N2CCCCC2)CCN(c2ncc(NC(=O)c3ccc(Cl)cc3)cc2C(=O)O)CC1`, for which the AC50 was 18.2 µM. Still for that read-out and setting: as for `O=C(O)c1ccccc1/C=N/NC(=O)c1cc(-c2ccco2)nc2ccccc12`, the figure is 3 µM.

`Cc1ccc(N2NC(c3ccc(Br)cc3)=CCC2=O)cc1`: the AC50 was > 160 µM (inactive).

`Cc1ccc(-c2nc(C)sc2CC(=O)NCc2ccco2)cc1`: the AC50 is 56.6 µM.

Regarding `O=C(COC(=O)c1ccc(S(=O)(=O)NCc2ccco2)cc1)Nc1ccc(Cl)cn1`, the AC50 was 26.9 µM. Take `O=C(Cc1cccs1)Nc1nnc(Cc2ccccc2)s1`: the half-maximal activity concentration (AC50) is 41.2 µM. `COc1ccc2nc(-c3ccco3)c(-c3ccco3)nc2c1`: the concentration at half-maximal activity (AC50) was 24.9 µM. Take `Cc1nn2c(c1-c1ccccc1)NC(c1ccco1)=CC2c1ccco1` (stereo unspecified): the AC50 was 13 µM. `CCCN1CCc2nc(SCc3nc(-c4ccc(OC)cc4OC)oc3C)[nH]c(=O)c2C1`: the AC50 is > 160 µM (inactive).

Regarding `COc1ccc(NC(=O)CN(C)C(=O)c2cc(-c3ccco3)nc3ccccc23)cc1`, the AC50 was 16.6 µM. For `COc1ccc(N2CC3=C(N2)c2ccccc2CC3)cc1`, the half-maximal activity concentration (AC50) was 54 µM.

Take `C[C@H](CO)N1C[C@H](C)[C@@H](CN(C)CC2CCCCC2)OCCCC[C@H](C)Oc2ccc(NS(C)(=O)=O)cc2C1=O`: the AC50 is > 160 µM (inactive). Take `NC(=O)C1(N2CCCCC2)CCN(c2ncc(NC(=O)c3cccs3)cc2C(=O)O)CC1`: the AC50 is 35.8 µM. For the compound `Nc1ccccc1Sc1nccc(C(F)(F)F)n1`, the AC50 is > 160 µM (inactive). On the same count and under the same terms, as for `CC1Cc2ccccc2N1CC(=O)NC(=O)NC(C)(C)C` (stereo unspecified), the figure is > 160 µM (inactive); as for `O=C(CC1Nc2ccccc2OC1=O)Nc1ccc(Cl)cc1` (stereo unspecified), > 160 µM (inactive); as for `Nc1c2c(nc3ccccc13)CCN(Cc1ccccc1)C2`, > 160 µM (inactive).

Regarding `O=C(O)CCc1ccc(-c2cccs2)n1NC(=O)c1ccco1`, the AC50 is 63.5 µM. As for `Cc1cccc(Nc2nc(C(=O)Nc3cc(F)ccc3F)nc3ccccc23)c1`, the AC50 was 24.3 µM.

Still in this test, the particulars now being: TRIM62-mediated CARD9 ubiquitylation, AlphaLISA TUBE detection; at 38 µM (top of the series).
On to `Cc1ccc(-c2nnc(-c3nc(Nc4nc5ccccc5s4)c4ccccc4n3)o2)cc1`, for which the “activity change, negative = inhibition” value is “inactive”.

Take `CC(=O)c1ccc(NC(=O)c2noc3c2CCC3)cc1`: the “activity change, negative = inhibition” value was “inactive”. Turning to `CCCCCn1c(NC(=O)c2ccco2)c(C(=O)OCC)c2nc3ccccc3nc21`, the “activity change, negative = inhibition” value is “inactive”.

Still in this test, the particulars now being: TRIM62-mediated CARD9 ubiquitylation, AlphaLISA TUBE detection; at 80 µM (top of the series).
In the case of `COc1ccc(-c2nc(SCC(=O)N3CCN(c4ccccc4OC)CC3)n[nH]2)cc1`, the “activity change, negative = inhibition” value is “inactive”.

With `CCCOc1ccc(CCC(=O)O)cc1`, the “activity change, negative = inhibition” value was “inactive”. On to `COc1ccc(Nc2nc(-c3nnc(-c4ccc(F)cc4)o3)nc3ccccc23)cc1Cl`, for which the “activity change, negative = inhibition” value is “inactive”.

With `O=C1C=C(c2ccccc2)Nc2ccccc2N1`, the “activity change, negative = inhibition” value was “inactive”.

Consider `COc1ccc(N2Cc3cccc(C(=O)NC(C)CCc4ccco4)c3C2=O)cc1` (stereo unspecified), for which the “activity change, negative = inhibition” value was “inactive”. With `Cc1cnc(C)c(N2CCN(C(=O)[C@H]3CC[C@@H](N)C3)CC2)n1`, the “activity change, negative = inhibition” value was “inactive”.

`CN(c1ccccc1C(=O)NCc1ccco1)S(C)(=O)=O`: the “activity change, negative = inhibition” value is “inactive”.

For `O=C(O)C(c1ccccc1)C(c1ccccc1)c1ccccc1` (stereo unspecified), the “activity change, negative = inhibition” value was “inactive”. Same read-out and setting: as for `O=C(NCc1cccnc1)c1ccccc1-c1nc(-c2ccccc2)no1`, the entry is “inactive”; as for `O=C(Cn1cncc1-c1ccc([N+](=O)[O-])cc1)Nc1ccccc1F`, “inactive”; as for `O=C(COC(=O)c1cc(-c2ccco2)nc2ccccc12)NCc1ccc2c(c1)OCO2`, “inactive”. Consider `CCCc1oc(C(=O)O)cc1CN`, for which the “activity change, negative = inhibition” value was “inactive”. For `CN(C)C(CN=C1NS(=O)(=O)c2ccccc21)c1ccco1` (stereo unspecified), the “activity change, negative = inhibition” value was “inactive”. Turning to `CCOc1ccc(-n2c3nc4ccccc4nc3c3c(=O)n(Cc4ccco4)cnc32)cc1`, the “activity change, negative = inhibition” value was “inactive”. As for `O=C(O)COCC(=O)NCc1ccco1`, the “activity change, negative = inhibition” value is “inactive”.

With `COC[C@]1(O)CCN(C(=O)CCN(C)S(C)(=O)=O)CC1(C)C`, the “activity change, negative = inhibition” value was “inactive”. For `O=[N+]([O-])c1cccc(-c2nnc3ccc4ccccc4n23)c1`, the “activity change, negative = inhibition” value is “inactive”. In the case of `N#Cc1c(-c2ccco2)cc(-c2ccccn2)nc1N`, the “activity change, negative = inhibition” value is “inactive”. Consider `Cc1ncnc(N2CCC(c3nccn3Cc3cccnc3)CC2)c1C`, for which the “activity change, negative = inhibition” value was “inactive”. Take `O=C1CC2(CCN(C(=O)Nc3ccccc3)CC2)CN1Cc1ccc(Cl)cc1`: the “activity change, negative = inhibition” value was “inactive”.

For `c1cn(CCc2noc(C3CCCC3)n2)c(-c2cc3n(n2)CCCNC3)n1`, the “activity change, negative = inhibition” value is “inactive”.

Regarding `O=C1c2ccccc2S(=O)(=O)N1Cc1cccc(S(=O)(=O)N2CCOCC2)c1`, the “activity change, negative = inhibition” value was “inactive”. Regarding `CCn1ccnc1C1CCN(C(=O)CCn2c(C)nc3ccccc32)CC1`, the “activity change, negative = inhibition” value was “inactive”. Regarding `CCOc1ccc(CNc2nc(-c3nnc(-c4ccc(F)cc4)o3)nc3ccccc23)cc1`, the “activity change, negative = inhibition” value is “inactive”. As for `O=C(O)c1ccccc1SC1CC(=O)N(Cc2ccccc2)C1=O` (stereo unspecified), the “activity change, negative = inhibition” value was “inactive”. As for `Cc1cc(C(=O)Nc2nc3c(s2)CCc2ccccc2-3)no1`, the “activity change, negative = inhibition” value was “inactive”. Same read-out and setting: to `Clc1ccc2nc(CN3CCCCCC3)cn2c1` belongs “inactive”; to `O=[N+]([O-])c1ccc2cc[nH]c2c1`, “inactive”.
